The text below walks through data of patent US20070123592A1, “Terephthalamide peptidomimetic compounds and methods” (YALE UNIVERSITY, priority 2004, published 2007).

Where “and” joins values, the source holds several entries; their conditions need not be identical. Equal entries are not always repeated.

One experiment addresses T1, Bcl-xL/Bak complex (Homo sapiens, UniProt Q07817).
T1 construct: made in house
As to the kind of experiment: Fluorescence polarization competition assay (displacement of fluorescein-labeled Bak peptide from Bcl-xL). Format: binding. Particulars: for K1 ± S.D. / Ki: 15 nM Fl-Bak, 184 nM Bcl-xL, 10 mM PBS pH 7.4, 25° C., mean of three independent experiments; for affinity / activity in disrupting the Bcl-xL/Bak interaction (in words): summary of Table 1; for Ki: read-out: K1 ± S.D. The method, then:
Fluorescence polarization experiments were conducted on a Photon Technology International instrument using a 0.3 cm path length cuvette.
(Polarisation of emitted light reports the rotation of a fluorescent probe.)

The target of another experiment is 15N-labeled Bcl-xL (Homo sapiens, UniProt Q07817). Nature of the experiment: (15N,1H)-2D-HSQC amide chemical shift perturbation mapping. The format is binding. Conditions: 2 mM Bcl-xL, 0, 1, 2 mM compound, 10% DMSO/D2O, 25° C., PBS pH 7.0. The method, then:
(^15N, ^1H)-2D-HSQC spectra were recorded on a Varian DPX-600 spectrometer. The concentration of Bcl-xL was 2 mM, with 0, 1 mM, 2 mM 3-26, respectively, in 10% DMSO/D2O (25° C., 10.0 mM PBS, pH 7.0).
To structurally probe the binding mode of the terephthalamide, (^15N, ^1H)-2D-amide chemical shift perturbation mapping with ^15N-labeled Bcl-xL were performed as above. Addition of compound 3-26 led to shifts in a number of residues on the surface of Bcl-xL. […] These affected residues all lie in the shallow cleft on the protein into which the Bak helix binds.

T1 sequence (Q07817 whole entry, species assumed, one chain of several): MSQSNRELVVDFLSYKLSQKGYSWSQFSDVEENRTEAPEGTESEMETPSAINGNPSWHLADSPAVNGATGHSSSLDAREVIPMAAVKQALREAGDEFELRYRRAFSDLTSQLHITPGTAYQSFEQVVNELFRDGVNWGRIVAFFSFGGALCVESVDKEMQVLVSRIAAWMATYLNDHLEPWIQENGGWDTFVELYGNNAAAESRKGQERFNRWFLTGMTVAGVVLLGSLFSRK
Chain of 15N-labeled Bcl-xL (Q07817 whole entry): as the sequence (Q07817 whole entry, species assumed, one chain of several) above

For the compound `CC(C)Oc1cc(C(=O)N(c2ccccc2)c2ccccc2)ccc1C(=O)N[C@@H](Cc1ccccc1)C(=O)O` [Compound 3-45, (S)-2-(4-Diphenylcarbamoyl-2-isopropoxy-benzoylamino)-3-phenyl-propionic acid], on Bcl-xL/Bak complex, the “K1 ± S.D.” value was “No affinity” and the “affinity / activity in disrupting the Bcl-xL/Bak interaction (in words)” value (from here on “affinity / activity”) is given as “most of the affinity was lost”.

In the case of `COC(=O)[C@H](C)NC(=O)c1ccc(C(=O)N(C)C)cc1OC(C)C` [Compound 3-33, (S)-2-(4-Dimethylcarbamoyl-2-isopropoxy-benzoylamino)-propionic acid methyl ester], on Bcl-xL/Bak complex, the Ki worked out at 8.34 ± 1.61 µM. Still for that read-out and setting: under `COC(=O)[C@@H](NC(=O)c1ccc(C(=O)N(CC(C)C)CC(C)C)cc1OC(C)C)C(C)C` [Compound 3-41, (S)-2-(4-Diisobutylcarbamoyl-2-isopropoxy-benzoylamino)-3-methyl-butyric acid methyl ester] stands 138 ± 49.5 µM. As to `CCN(CC)C(=O)c1ccc(C(=O)N[C@@H](C)C(=O)OC)c(OC(C)C)c1` [Compound 3-37, (S)-2-(4-Diethylcarbamoyl-2-isopropoxy-benzoylamino)-propionic acid methyl ester], on Bcl-xL/Bak complex, the Ki came to 2.44 ± 0.947 µM and the “affinity / activity” value is “low micro-molar Ki values”. With `CC(C)CC(NC(=O)c1ccc(C(=O)NCC(=O)O)cc1O)C(=O)O` (centres unmarked) [Compound 3-46], the “K1 ± S.D.” value on Bcl-xL/Bak complex was “No affinity”.

Turning to `COC(=O)[C@H](CC(C)C)NC(=O)c1ccc(C(=O)N(CC(C)C)[C@@H](C)C(=O)OC)cc1OC(C)C` [Compound 3-22, (S)-2-{4-[Isobutyl-((S)-1-methoxycarbonyl-ethyl)-carbamoyl]-2-isopropoxy-benzoylamino}-4-methyl-pentanoic acid methyl ester], at Bcl-xL/Bak complex, the “K1 ± S.D.” value is given as “No affinity” and the “affinity / activity” value was “did not show activity”. For the compound `COC(=O)[C@H](C)NC(=O)c1ccc(C(=O)N(CC(C)C)CC(C)C)cc1OC(C)C` [Compound 3-39, (S)-2-(4-Diisobutylcarbamoyl-2isopropoxy-benzoylamino)-propionic acid methyl ester], the Ki at Bcl-xL/Bak complex came to 8.76 ± 2.78 µM. Same read-out and setting: under `CC(C)Oc1cc(C(=O)N(C)C)ccc1C(=O)N[C@@H](Cc1ccccc1)C(=O)O` [Compound 3-35, (S)-2-(4-Dimethylcarbamoyl-2-isopropoxy-benzoylamino)-3-phenyl-propionic acid] stands 8.92 ± 3.59 µM. For `COC(=O)[C@H](CC(C)C)NC(=O)c1ccc(C(=O)N(C(C)C)C(C)C)cc1OC(C)C` [Compound 3-9, (S)-2-(4-Diisopropylcarbamoyl-2-isopropoxy-benzoylamino)-4-methyl-pentanoic acid methyl ester], at Bcl-xL/Bak complex, the Ki is 0.78 µM and 0.781 µM; the “affinity / activity” value is reported as “low micro-molar Ki values”.

As to `CC(C)C[C@H](NC(=O)c1ccc(C(=O)N(c2ccccc2)c2ccccc2)cc1OC(C)C)C(=O)O` [Compound 3-43, (S)-2-(4-Diphenylcarbamoyl-2-isopropoxy-benzoylamino)-4-methyl-pentanoic acid], on Bcl-xL/Bak complex, the Ki was 780 ± 174 µM and the “affinity / activity” value is reported as “most of the affinity was lost”. As to `CCN(CC)C(=O)c1ccc(C(=O)N[C@@H](CC(C)C)C(=O)OC)c(OC(C)C)c1` [Compound 3-38, (S)-2-(4-Diethylcarbamoyl-2-isopropoxy-benzoylamino)-4-methyl-pentanoic acid methyl ester], the Ki at Bcl-xL/Bak complex came out at 11.4 ± 5.09 µM. With `COC(=O)[C@H](CC(C)C)NC(=O)c1ccc(C(=O)N(C(C)C)C(C)C)cc1OC` [Compound 3-26, (S)-2-(4-Diisopropylcarbamoyl-2-methoxy-benzoylamino)-4-methyl-pentanoic acid methyl ester], the Ki at Bcl-xL/Bak complex came to 1.85 ± 0.318 µM. At 15N-labeled Bcl-xL, the “amide chemical shift changes of Bcl-xL residues on addition of inhibitor” value is “significant chemical shift changes”.

In the case of `COC(=O)[C@H](CC(C)C)NC(=O)c1ccc(C(=O)N(CC(C)C)CC(C)C)cc1OC(C)C` [Compound 3-40, (S)-2-(4-Diisobutylcarbamoyl-2-isopropoxy-benzoylamino)-4-methyl-pentanoic acid methyl ester], on Bcl-xL/Bak complex, the Ki came to 8.36 ± 3.8 µM. In the case of `CC(C)C[C@H](NC(=O)c1ccc(C(=O)N(C(C)C)C(C)C)cc1NC(C)C)C(=O)O` [Compound 3-17, (S)-2-(4-Diisopropylcarbamoyl-2-isopropylamino-benzoylamino)-4-methyl-pentanoic acid], on Bcl-xL/Bak complex, the Ki came out at 3.31 ± 0.345 µM. Moreover, at Bcl-xL/Bak complex (relative to 3-10), the “affinity less than 2-isopropoxy analogue 3-10” value is reported as 4 fold. Consider `CC(C)C[C@H](NC(=O)c1ccc(C(=O)N(C(C)C)C(C)C)cc1OC(C)C)C(=O)O` [Compound 3-10], for which the Ki at Bcl-xL/Bak complex is 0.839 ± 0.171 µM. For `CC(C)Oc1cc(C(=O)N(c2ccccc2)c2ccccc2)ccc1C(=O)N[C@@H](C)C(=O)O` [Compound 3-42, (S)-2-(4-Diphenylcarbamoyl-2-isopropoxy-benzoylamino)-propionic acid], at Bcl-xL/Bak complex, the Ki is 260 ± 58 µM and the “affinity / activity” value is listed as “most of the affinity was lost”. Consider `COC(=O)[C@H](CC(C)C)NC(=O)c1ccc(C(=O)N(c2ccccc2)c2ccccc2)cc1OC(C)C` [Compound 3-44, (S)-2-(4-Diphenylcarbamoyl-2-isopropoxy-benzoylamino)-4-methyl-pentanoic acid methyl ester], for which, on Bcl-xL/Bak complex, the “K1 ± S.D.” value is recorded as “No affinity” and the “affinity / activity” value is reported as “most of the affinity was lost”.
